The text below walks through data of patent US10485739B2, “High strength microcapsules” (ENCAPSYS, LLC, priority 2014, dated 2019).

≈ marks a conversion by molar mass, not a printed value.

One series is described as follows: Monomer solubility in water (GC/MS of water phase). The class given is physicochemical. To be noted: @ 25° C.; monomer equilibrated with deionized water 24 hours. As for the experimental part:
Monomer Solubility in Water
Solubility of the monomers in water is determined by combining 5 g of monomer and 5 g of deionized water in a sealed 20 ml vial for 30 min, after which the sample is allowed to sit at room temperature for 24 hours to establish equilibrium and phase separation of monomer from water. The water phase was then removed and analyzed to determine the monomer concentration GC/MS (7890B GC with a 5977A MSD Mass Spectrophotometer), both from Agilent. Inlet temperature at 270 C. Ramp starting at 100° C. to 320° C. at 10 degrees per min. The mass spec was scanning from a molecular weight of 30-500. The GC column was a Agilent DB-SMS 30M×0.250 mm.
Regarding “Polyethylene glycol 200 diacrylate [SR259]”, the Solubility in water came out at 40680 µg/mL.

Consider “polyethylene glycol (600) diacrylate [SR610]”, for which the Solubility in water entry is listed as “soluble”.

Take `C=CC(=O)OCCOCCOCC` [SR256, 2-(2-ethoxyethoxy) ethyl acrylate]: the Solubility in water was 25330 µg/mL (≈ 135 mM).

For “Polyethylene glycol 400 diacrylate [SR344]”, the Solubility in water entry is reported as “soluble”.

The same series, now with this note: thermodynamic from solid; @ 25° C.; monomer equilibrated with deionized water 24 hours.
As usually defined, the solubility is the concentration that dissolves in the medium under given conditions. A lower solubility goes with little dissolved substance. As to `C=CC(=O)OCC(COC(=O)C=C)(COC(=O)C=C)COC(=O)C=C` [SR295, PENTAERYTHRITOL TETRAACRYLATE], the solubility at 24 h amounted to 4230 µg/mL (≈ 12 mM).

`C=CC(=O)OCC(C)(C)COC(=O)C=C` [SR247, Neopentyl glycol diacrylate] displayed a solubility at 24 h of 940 µg/mL (≈ 4.43 mM).

As to `C=C(C)C(=O)OCCOC(=O)C(=C)C` [SR206, Ethylene glycol dimethacrylate], the solubility at 24 h came out at 2400 µg/mL (≈ 12.1 mM).

Test in a further series: not given
The settings on record: temperature at which initiator has 10 hour half-life; cited from earlier work.
As to `CC(C)(N=NC(C)(C)C(=O)NCCO)C(=O)NCCO` [VA-086, 2,2′-Azobis[2-methyl-N-(2-hydroxyethyl)propionamide]], the “10 hour ½ life temperature” value was 10 hour ½ life at 86 °C.

Turning to `CCC(C)(C#N)N=NC(C)(C#N)CC` (centres unmarked) [Vazo-67, 2,2′-azobis(2-methylbutyronitrile)], the “10 hour ½ life temperature” value was 10 hour ½ life at 67 °C.

`N#CC1(N=NC2(C#N)CCCCC2)CCCCC1` [Vazo-88, 1,1′-Azobis(cyclohexanecarbonitrile)]: the “10 hour ½ life temperature” value was 10 hour ½ life at 88 °C.

For the compound `CC(C)(N=NC(C)(C)C(=N)N)C(=N)N.Cl` [Sample V-50, 2,2′-azobis(2-amidinopropane) hydrochloride], the “10 hour ½ life temperature” value is 10 hour ½ life at 56 °C.
